What was measured:
Format in all cases: physicochemical
[1] = pKa in the dark and under light irradiation; conditions: for pKa: water:DMSO 99:1, dark, read-out: pKa dark (open form)
From the text: Since light‐induced cyclization is also associated with a change in the nature of the amino group of 1a–e, we investigated the change in their pK a upon light irradiation. This phenomenon has been already reported in the literature for other photoresponsive molecules,^[ [41], [42] ^] and it is recognized that, apart from being key in many biological processes, is a powerful tool for potential applications in catalysis^[ [43] ^] or self‐assembly.^[ [44] ^] […] Moreover, for compounds 1b and 1c, bearing methoxy groups, the change in pK a generated upon light irradiation is considerably smaller than for compounds 1d and 1e, bearing fluorine groups. This difference can be easily associated with the nature of the substituents, where for 1d–e the electron‐withdrawing effect of the fluorine favors a higher acidity of the closed isomers, contrarily to the effect of the electron‐donating groups for 1b–c.

[2] = Solubility in solvents; conditions: solvent
From the text: Having explored the effect of substituents, we next focused on the impact of the medium. […] These findings can be explained using the reported hydrogen‐bond donor (HBD) acidity (Taft–Kamlet α‐scale) of the utilized solvents.^[ [39] ^] Such a big difference in thermal half‐life has to be associated with the proton transfer from the secondary amine (in the closed form) to the phenol group since the back relaxation from the closed form to the open conjugated form is a […] process. We hypothesize that solvents like water and methanol trigger a Grotthus‐like proton transfer mechanism which speeds up the back‐relaxation process, similar to what was previously reported for other phenol‐bearing photoswitches.^[ [40] ^]
Similar to what is observed for the other compounds, the half‐life of closed 1f in water is extremely small (Table 1). This opens the opportunity of using 1f in out‐of‐equilibrium^[ [45] ^] and dissipative water‐based systems. Moreover, irradiation of 1f triggers the photo reactions that generate its respective closed indole‐like form, which compared to the closed forms of 1a–e also has a lower value of pK^hν (Table 1) and generates a higher ΔpK a value between the open and closed forms, being 1.7 pK a units, thanks to the electron‐withdrawing effect coming from the presence of a sulfonate group.

[3] = Fatigue resistance / photostability under 365 nm irradiation; conditions: UV–vis absorbance kinetic experiments

SMILES	pKa [1]	ΔpKa between the open and closed forms ([1]; water:DMSO 99:1) [pK a units]	Solubility [2]	Photostability on prolonged irradiation at 365 nm [3]
COc1ccc2c(c1)C(C)(C)C(/C=C/c1ccccc1O)=N2 [1b]	4.6	–	–	–
CC1(C)C(/C=C/c2cc(F)ccc2O)=Nc2ccccc21 [1e]	4.3	–	–	–
CC1(C)C(/C=C/c2ccccc2O)=Nc2ccc(S(=O)(=O)[O-])cc21.[K+] [1f]	3.9	1.7	fully soluble and fully switchable in water	–
CC1(C)C(/C=C/c2ccccc2O)=Nc2ccc(F)cc21 [1d]	4.3	–	–	–
COc1ccc(O)c(/C=C/C2=Nc3ccccc3C2(C)C)c1 [1c]	4.3	–	–	–
COc1ccccc1/C=C/C1=Nc2ccccc2C1(C)C [1g]	–	–	–	photodegradation of the sample
CC1(C)C(/C=C/c2ccccc2O)=Nc2ccccc21 [1a]	4.3	–	soluble in both polar and apolar solvents	–

From PMC12232897, “Harnessing Negative Photochromism in Styryl Cyanines for Light‐Modulated Proton Transport” (Angewandte Chemie (International Ed. in English), 2025)
